Like-named read-outs stand apart in the source and are kept apart here.

Assay [1] relates to Dirofilaria immitis microfilariae. Description: in vitro microwell motility assay against heartworm microfilariae. In kind it is cell-based. As to conditions: microfilaria from canine blood, 384 well plate, 72 hours incubation at 37° C. and 5% CO2, LemnaTec Scanalyzer.
Assay [2] has as its system L4 stage larvae of D. immitis. Nature of the assay: L4 stage larvae motility/kill assay. The class given is cell-based, Dirofilaria immitis.
[3] abbreviates: screened at 10 μM in duplicate, 96-well plate, motility observed at 4, 24, 48 and 72 hours, endpoint defined as ED80 (80% of larvae killed).

On to `CC(C#N)(NC(=O)c1ccc(S(F)(F)(F)(F)F)cc1)C1Cc2cc(C#N)cc(Cl)c2O1` (stereo not shown) [test compound 80, N-[1-(7-chloro-5-cyano-2,3-dihydro-1-benzofuran-2-yl)-1-cyanoethyl]-4-(pentafluorothio)benzamide], for which the “ED50 (dose at which the overall microfilaria motility was reduced by 50% compared to that of an untreated control)” value in assay [1] stood at 3.3 µM. For the same molecule, in assay [2] (setting [3]), the “active against L4 D. immitis at 10 μM” value is listed as “active”.

Consider `CC(C#N)(COc1ccccc1C(F)(F)F)NC(=O)c1ccc(S(F)(F)(F)(F)F)cc1` (stereo not shown) [test compound 14, N-{1-cyano-1-methyl-2-[2-(trifluoromethyl)phenoxy]ethyl}-4-(pentafluorothio)-benzamide], for which, in assay [1], the “ED50 (dose at which the overall microfilaria motility was reduced by 50% compared to that of an untreated control)” value turned out to be 10 µM. Further, in assay [2] (setting [3]), the “active against L4 D. immitis at 10 μM” value is “active”.

As for `CC(C#N)(COc1ccccc1Cl)NC(=O)c1ccc(S(F)(F)(F)(F)F)cc1` (stereo not shown) [test compound 16, N-[2-(2-chlorophenoxy)-1-cyano-1-methylethyl]-4-(pentafluorothio)benzamide], the “ED50 (dose at which the overall microfilaria motility was reduced by 50% compared to that of an untreated control)” value in assay [1] turned out to be 33 µM. Besides, the “active against L4 D. immitis at 10 μM” value in assay [2] (setting [3]) is on record as “active”.

On to `CC(C#N)(COc1ccc(F)cc1Cl)NC(=O)c1ccc(S(F)(F)(F)(F)F)cc1` (stereo not shown) [test compound 18, N-[2-(2-chloro-4-fluorophenoxy)-1-cyano-1-methylethyl]-4-(pentafluorothio)-benzamide], for which the “ED50 (dose at which the overall microfilaria motility was reduced by 50% compared to that of an untreated control)” value in assay [1] is 33 µM. For the same molecule, the “active against L4 D. immitis at 10 μM” value in assay [2] (setting [3]) is on record as “active”.

For the molecule `CC(C#N)(COc1ccc(Cl)cc1)NC(=O)c1ccc(S(F)(F)(F)(F)F)cc1` (stereo not shown) [test compound 10, N-[2-(4-chlorophenoxy)-1-cyano-1-methylethyl]-4-(pentafluorothio)benzamide], the “active against L4 D. immitis at 10 μM” value in assay [2] (setting [3]) was “active”.

With `Cc1ccc(C#N)cc1OCC(C)(C#N)NC(=O)c1ccc(S(F)(F)(F)(F)F)cc1` (stereo not shown) [test compound 43, N-[1-cyano-2-(5-cyano-2-methylphenoxy)-1-methylethyl]-4-(pentafluorothio)benzamide], the “ED50 (dose at which the overall microfilaria motility was reduced by 50% compared to that of an untreated control)” value in assay [1] amounted to 10 µM. Also, the “active against L4 D. immitis at 10 μM” value in assay [2] (setting [3]) was “active”.

Consider `CO[C@H]1C[C@H](O[C@@H]2/C(C)=C/C[C@@H]3C[C@@H](C[C@]4(CC[C@H](C)[C@@H](C5CCCCC5)O4)O3)OC(=O)[C@@H]3C=C(C)/C(=N/O)[C@H]4OC/C(=C\C=C\[C@@H]2C)[C@]43O)O[C@@H](C)[C@@H]1O` [Selamectin, reference compound], for which the “active against L4 D. immitis at 10 μM” value in assay [2] was “active”.

For the molecule ivermectin [reference compound], the “active against L4 D. immitis at 10 μM” value in assay [2] is recorded as “active”.

Turning to `CC(C#N)(COc1ccc(I)cc1)NC(=O)c1ccc(S(F)(F)(F)(F)F)cc1` (stereo not shown) [test compound 13, N-[1-cyano-2-(4-iodophenoxy)-1-methylethyl]-4-(pentafluorothio)benzamide], the “active against L4 D. immitis at 10 μM” value in assay [2] (setting [3]) is listed as “active”.

In the case of `CC(C#N)(COc1ccc(C#N)cc1C(F)(F)F)NC(=O)c1ccc(S(F)(F)(F)(F)F)cc1` (stereo not shown) [test compound 7, N-{1-cyano-2-[4-cyano-2-(trifluoromethyl)phenoxy]-1-methylethyl}-4-(pentafluorothio)benzamide], the “active against L4 D. immitis at 10 μM” value in assay [2] (setting [3]) was “active”.

On to `CC(C#N)(COc1cc(C#N)ccc1C(F)(F)F)NC(=O)c1ccc(S(F)(F)(F)(F)F)cc1` (stereo not shown) [test compound 1, N-{1-cyano-2-[5-cyano-2-(trifluoromethyl)phenoxy]-1-methylethyl}-4-(pentafluorothio)benzamide], for which the “ED50 (dose at which the overall microfilaria motility was reduced by 50% compared to that of an untreated control)” value in assay [1] was determined as 10 µM. In addition, the “active against L4 D. immitis at 10 μM” value in assay [2] (setting [3]) is “active”.

As for `COc1ccc(OCC(C)(C#N)NC(=O)c2ccc(S(F)(F)(F)(F)F)cc2)c(C(F)(F)F)c1` (stereo not shown) [test compound 42, N-{1-cyano-2-[4-methoxy-2-(trifluoromethyl)phenoxy]-1-methylethyl}-4-(pentafluorothio)benzamide], the “ED50 (dose at which the overall microfilaria motility was reduced by 50% compared to that of an untreated control)” value in assay [1] worked out at 33 µM. Also, in assay [2] (setting [3]), the “active against L4 D. immitis at 10 μM” value is “active”.

Turning to `CC(C#N)(COc1ccc(C#N)cc1Br)NC(=O)c1ccc(S(F)(F)(F)(F)F)cc1` (stereo not shown) [test compound 29, N-[2-(2-bromo-4-cyanophenoxy)-1-cyano-1-methylethyl]-4-(pentafluorothio)-benzamide], in assay [2] (setting [3]), the “active against L4 D. immitis at 10 μM” value was “active”.

As to `CC(C#N)(COc1ccc(Cl)cc1Cl)NC(=O)c1ccc(S(F)(F)(F)(F)F)cc1` (stereo not shown) [test compound 8, N-[1-cyano-2-(2,4-dichlorophenoxy)-1-methylethyl]-4-(pentafluorothio)benzamide], the “active against L4 D. immitis at 10 μM” value in assay [2] (setting [3]) was “active”.

milbemycin oxime [reference compound]: in assay [2] (setting [3]), the “active against L4 D. immitis at 10 μM” value is given as “active”.

Regarding `CC(C#N)(COc1ccc(-c2ccncc2)cc1C(F)(F)F)NC(=O)c1ccc(S(F)(F)(F)(F)F)cc1` (stereo not shown) [test compound 81, N-{1-cyano-1-methyl-2-[4-pyridin-4-yl-2-(trifluoromethyl)phenoxy]ethyl}-4-(pentafluorothio)benzamide], the “ED50 (dose at which the overall microfilaria motility was reduced by 50% compared to that of an untreated control)” value in assay [1] turned out to be 3.3 µM. Also, in assay [2] (setting [3]), the “active against L4 D. immitis at 10 μM” value was “active”.

For the molecule `CC(C#N)(COc1ccc(Cl)cc1C#N)NC(=O)c1ccc(S(F)(F)(F)(F)F)cc1` (stereo not shown) [test compound 11, N-[2-(4-chloro-2-cyanophenoxy)-1-cyano-1-methylethyl]-4-(pentafluorothio)-benzamide], in assay [2] (setting [3]), the “active against L4 D. immitis at 10 μM” value was “active”.

Turning to `CC(C#N)(COc1cc(C#N)ccc1Oc1ccccc1)NC(=O)c1ccc(S(F)(F)(F)(F)F)cc1` (stereo not shown) [test compound 60, N-[1-cyano-2-(5-cyano-2-phenoxyphenoxy)-1-methylethyl]-4-(pentafluorothio)benzamide], in assay [1], the “ED50 (dose at which the overall microfilaria motility was reduced by 50% compared to that of an untreated control)” value was determined as 3.3 µM. Also, the “active against L4 D. immitis at 10 μM” value in assay [2] (setting [3]) is “active”.

Turning to `C[C@](C#N)(COc1ccc(C#N)cc1C(F)(F)F)NC(=O)c1ccc(S(F)(F)(F)(F)F)cc1` [test compound 51a], in assay [1], the “ED50 (dose at which the overall microfilaria motility was reduced by 50% compared to that of an untreated control)” value was determined as 10 µM. In assay [2] (setting [3]), the “active against L4 D. immitis at 10 μM” value was “active”.

As to `COc1ccccc1Oc1ccc(C#N)cc1OCC(C)(C#N)NC(=O)c1ccc(S(F)(F)(F)(F)F)cc1` (stereo not shown) [test compound 69, N-{1-cyano-2-[5-cyano-2-(2-methoxyphenoxy)phenoxy]-1-methylethyl}-4-(pentafluorothio)benzamide], in assay [2] (setting [3]), the “active against L4 D. immitis at 10 μM” value is reported as “active”.

Consider `CO/N=C1\C[C@]2(C[C@@H]3C[C@@H](C/C=C(\C)C[C@@H](C)/C=C/C=C4\CO[C@@H]5[C@H](O)C(C)=C[C@@H](C(=O)O3)[C@]45O)O2)O[C@H](/C(C)=C/C(C)C)[C@H]1C` [moxidectin, reference compound], for which the “active against L4 D. immitis at 10 μM” value in assay [2] (setting [3]) is “active”.

The values are drawn from patent US8962681B2, “Use of aminoacetonitrile derivatives against endoparasites” (Zoetis LLC, priority 2011, dated 2015).
